Common to all, as to type: functional
In assay [1] the test system is Mycobacterium tuberculosis. Kind of assay: Antimycobacterial activity against clinical isolates of multidrug resistant/extensively drug resistant Mycobacterium tuberculosis 9449/2007 after 14 days by micromethod. To be noted: 9449/2007, 336 h.
In assay [2] the test system is Mycobacterium tuberculosis. Kind of assay: Antimycobacterial activity against clinical isolates of multidrug resistant/extensively drug resistant Mycobacterium tuberculosis 234/2005 after 14 days by micromethod. To be noted: 234/2005, 336 h.
The test system of assay [3] is Mycobacterium tuberculosis. Kind of assay: Antimycobacterial activity against clinical isolates of multidrug resistant/extensively drug resistant Mycobacterium tuberculosis 7357/1998 after 21 days by micromethod. To be noted: 7357/1998, 504 h.
Assay [4] deals with Mycobacterium tuberculosis. Kind of assay: Antimycobacterial activity against clinical isolates of multidrug resistant/extensively drug resistant Mycobacterium tuberculosis Praha 1 after 14 days by micromethod. To be noted: Praha 1, 336 h.
For assay [5], the system named is Mycobacterium tuberculosis. Kind of assay: Antimycobacterial activity against clinical isolates of multidrug resistant/extensively drug resistant Mycobacterium tuberculosis Praha 1 after 21 days by micromethod. To be noted: Praha 1, 504 h.
The subject of assay [6] is Mycobacterium tuberculosis. The experiment in a line: Antimycobacterial activity against clinical isolates of multidrug resistant/extensively drug resistant Mycobacterium tuberculosis 7357/1998 after 14 days by micromethod. To be noted: 7357/1998, 336 h.
The test system of assay [7] is Mycobacterium tuberculosis. The experiment in a line: Antimycobacterial activity against clinical isolates of multidrug resistant/extensively drug resistant Mycobacterium tuberculosis Praha 131 after 21 days by micromethod. To be noted: Praha 131, 504 h.
Assay [8] deals with Mycobacterium tuberculosis. Kind of assay: Antimycobacterial activity against clinical isolates of multidrug resistant/extensively drug resistant Mycobacterium tuberculosis Praha 4 after 14 days by micromethod. To be noted: Praha 4, 336 h.
For assay [9], the system named is Mycobacterium tuberculosis. Kind of assay: Antimycobacterial activity against clinical isolates of multidrug resistant/extensively drug resistant Mycobacterium tuberculosis Praha 131 after 14 days by micromethod. To be noted: Praha 131, 336 h.
The test system of assay [10] is Mycobacterium tuberculosis. Kind of assay: Antimycobacterial activity against clinical isolates of multidrug resistant/extensively drug resistant Mycobacterium tuberculosis Praha 4 after 21 days by micromethod. To be noted: Praha 4, 504 h.
Assay [11] concerns Mycobacterium tuberculosis. The experiment in a line: Antimycobacterial activity against clinical isolates of multidrug resistant/extensively drug resistant Mycobacterium tuberculosis 9449/2007 after 21 days by micromethod. To be noted: 9449/2007, 504 h.
Assay [12] relates to Mycobacterium tuberculosis. Kind of assay: Antimycobacterial activity against clinical isolates of multidrug resistant/extensively drug resistant Mycobacterium tuberculosis 234/2005 after 21 days by micromethod. To be noted: 234/2005, 504 h.
Assay [13] concerns Mycobacterium tuberculosis. Kind of assay: Antimycobacterial activity against clinical isolates of multidrug resistant/extensively drug resistant Mycobacterium tuberculosis 8666/2010 after 21 days by micromethod. To be noted: 8666/2010, 504 h.
In assay [14] the test system is Mycobacterium tuberculosis. Kind of assay: Antimycobacterial activity against clinical isolates of multidrug resistant/extensively drug resistant Mycobacterium tuberculosis 8666/2010 after 14 days by micromethod. To be noted: 8666/2010, 336 h.

Each structure is given as a SMILES string. Values after ≈ are worked out from the molar mass of the structure shown.

As usually defined, the MIC is the lowest concentration that inhibits growth of the organism. Take `O=[N+]([O-])c1cc(-c2nnn(Cc3ccccc3)n2)cc([N+](=O)[O-])c1`: the MIC in assay [1], in assay [2], in assay [3], in assay [4], in assay [5] and in assay [6] was 1 µM (≈ 0.326 µg/mL) in each case. Further, the MIC in assay [7], in [8], in assay [9], in assay [10], in assay [11] and in [12] was 1 µM (≈ 0.326 µg/mL) in each case.

Turning to `O=[N+]([O-])c1cc(-c2nnn(Cc3cccc(Br)c3)n2)cc([N+](=O)[O-])c1`, the MIC in assay [1] worked out at 0.25 µM (≈ 0.101 µg/mL); in assay [2], 0.25 µM (≈ 0.101 µg/mL); in assay [3] it was 0.5 µM (≈ 0.203 µg/mL); in assay [4] it was 0.5 µM (≈ 0.203 µg/mL); in assay [13], 0.5 µM (≈ 0.203 µg/mL); in assay [5] it was 0.5 µM (≈ 0.203 µg/mL). For the same compound, the MIC amounted to 0.5 µM (≈ 0.203 µg/mL) in assay [6]; 1 µM (≈ 0.405 µg/mL) in [7]; 0.25 µM (≈ 0.101 µg/mL) in [14]; 0.5 µM (≈ 0.203 µg/mL) in assay [8]; 0.5 µM (≈ 0.203 µg/mL) in assay [9]; 1 µM (≈ 0.405 µg/mL) in assay [10]. Further, the MIC in assay [11] and in assay [12] was 0.5 µM (≈ 0.203 µg/mL) throughout.

Regarding `O=[N+]([O-])c1cc(-c2nnn(CSc3nnnn3-c3ccc(Cl)cc3)n2)cc([N+](=O)[O-])c1`, the MIC was 0.03 µM (≈ 0.0138 µg/mL) in [1]; 0.03 µM (≈ 0.0138 µg/mL) in [2]; 0.03 µM (≈ 0.0138 µg/mL) in assay [3]; 0.03 µM (≈ 0.0138 µg/mL) in assay [4]; 0.06 µM (≈ 0.0276 µg/mL) in [5]; 0.03 µM (≈ 0.0138 µg/mL) in assay [6]. The MIC in assay [7] was 0.03 µM (≈ 0.0138 µg/mL); in assay [8], 0.03 µM (≈ 0.0138 µg/mL); in assay [9] it was 0.03 µM (≈ 0.0138 µg/mL); in [10] it was 0.03 µM (≈ 0.0138 µg/mL); in [11], 0.03 µM (≈ 0.0138 µg/mL); in assay [12] it was 0.06 µM (≈ 0.0276 µg/mL).

For `O=[N+]([O-])c1cc(-c2nnn(CSc3nnnn3-c3ccc(Br)cc3)n2)cc([N+](=O)[O-])c1`, the MIC in [1], in [2], in assay [3], in assay [4], in [5] and in [6] was 0.03 µM (≈ 0.0152 µg/mL) each time. Besides, the MIC in assay [7], in assay [8], in assay [9], in assay [10], in assay [11] and in assay [12] was 0.03 µM (≈ 0.0152 µg/mL) in each case.

Take `O=[N+]([O-])c1cc(-c2nnn(CSc3nnnn3-c3ccc(Cl)c(Cl)c3)n2)cc([N+](=O)[O-])c1`: the MIC in assay [1], in [2], in [3], in assay [4], in [5] and in assay [6] was 0.03 µM (≈ 0.0149 µg/mL) throughout. The MIC in [7], in assay [8], in assay [9], in [10], in assay [11] and in assay [12] was 0.03 µM (≈ 0.0149 µg/mL) each time.

Consider `O=[N+]([O-])c1cc(-c2nnn(Cc3cccc(F)c3)n2)cc([N+](=O)[O-])c1`, for which the MIC in assay [1], in assay [2], in assay [3], in assay [4], in assay [13] and in assay [5] was 1 µM (≈ 0.344 µg/mL) throughout. Also, the MIC in [6], in assay [7], in assay [14], in assay [8], in [9] and in assay [10] was 1 µM (≈ 0.344 µg/mL) each time. The MIC in assay [11] and in [12] was 1 µM (≈ 0.344 µg/mL) throughout.

`O=[N+]([O-])c1cc(-c2nnn(CCCSc3nnnn3-c3ccc(Br)cc3)n2)cc([N+](=O)[O-])c1`: the MIC in assay [1], in [2], in assay [3], in [4], in [5] and in assay [6] was 0.25 µM (≈ 0.133 µg/mL) each time. For the same compound, the MIC in assay [7], in assay [8], in assay [9], in [10], in assay [11] and in assay [12] was 0.25 µM (≈ 0.133 µg/mL) throughout.

Consider `Cc1ccc(Cn2nnc(-c3cc([N+](=O)[O-])cc([N+](=O)[O-])c3)n2)cc1`, for which the MIC in assay [1] came to 0.12 µM (≈ 0.0408 µg/mL); in [2] it was 0.12 µM (≈ 0.0408 µg/mL); in [3], 0.12 µM (≈ 0.0408 µg/mL); in [4], 0.12 µM (≈ 0.0408 µg/mL); in assay [13], 0.12 µM (≈ 0.0408 µg/mL); in [5] it was 0.25 µM (≈ 0.0851 µg/mL). Further, the MIC in assay [6], in assay [7], in [14], in assay [8], in assay [9] and in assay [10] was 0.12 µM (≈ 0.0408 µg/mL) in each case. Further, the MIC in assay [11] and in [12] was 0.12 µM (≈ 0.0408 µg/mL) each time.

In the case of `COc1cccc(-n2nnnc2SCn2nnc(-c3cc([N+](=O)[O-])cc([N+](=O)[O-])c3)n2)c1`, the MIC in assay [1], in assay [2], in assay [3], in assay [4], in [5] and in [6] was 0.03 µM (≈ 0.0137 µg/mL) in each case. The MIC in [7] was 0.03 µM (≈ 0.0137 µg/mL); in assay [8] it was 0.03 µM (≈ 0.0137 µg/mL); in assay [9], 0.03 µM (≈ 0.0137 µg/mL); in assay [10] it was 0.03 µM (≈ 0.0137 µg/mL); in [11], 0.06 µM (≈ 0.0274 µg/mL); in assay [12] it was 0.03 µM (≈ 0.0137 µg/mL).

Take `O=[N+]([O-])c1cc(-c2nnn(Cc3ccc(F)cc3)n2)cc([N+](=O)[O-])c1`: the MIC in assay [1] was 0.25 µM (≈ 0.0861 µg/mL); in assay [2] it was 0.5 µM (≈ 0.172 µg/mL); in [3], 0.5 µM (≈ 0.172 µg/mL); in [4] it was 1 µM (≈ 0.344 µg/mL); in [13] it was 0.5 µM (≈ 0.172 µg/mL); in assay [5] it was 1 µM (≈ 0.344 µg/mL). The minimal inhibitory concentration (MIC) came to 0.5 µM (≈ 0.172 µg/mL) in assay [6]; 1 µM (≈ 0.344 µg/mL) in assay [7]; 0.5 µM (≈ 0.172 µg/mL) in assay [14]; 0.5 µM (≈ 0.172 µg/mL) in assay [8]; 0.5 µM (≈ 0.172 µg/mL) in [9]; 1 µM (≈ 0.344 µg/mL) in assay [10]. The values for the MIC in [11] and in assay [12] were 0.5 µM (≈ 0.172 µg/mL) and 1 µM (≈ 0.344 µg/mL), respectively.

In the case of `O=[N+]([O-])c1cc(-c2nnn(CCCCSc3nnnn3-c3ccc(Br)cc3)n2)cc([N+](=O)[O-])c1`, the MIC in assay [1], in [2], in assay [3], in assay [4], in assay [5] and in assay [6] was 0.25 µM (≈ 0.137 µg/mL) each time. Further, the MIC is 0.25 µM (≈ 0.137 µg/mL) in [7]; 0.25 µM (≈ 0.137 µg/mL) in [8]; 0.25 µM (≈ 0.137 µg/mL) in assay [9]; 0.25 µM (≈ 0.137 µg/mL) in assay [10]; 0.5 µM (≈ 0.274 µg/mL) in assay [11]; 0.25 µM (≈ 0.137 µg/mL) in assay [12].

For the compound `COc1ccc(Cn2nnc(-c3cc([N+](=O)[O-])cc([N+](=O)[O-])c3)n2)cc1`, the MIC in [1], in assay [2], in assay [3], in assay [4], in assay [13] and in assay [5] was 0.03 µM (≈ 0.0107 µg/mL) each time. Further, the MIC in assay [6], in assay [7], in assay [14], in [8], in assay [9] and in assay [10] was 0.03 µM (≈ 0.0107 µg/mL) in each case. The MIC came out at 0.03 µM (≈ 0.0107 µg/mL) in assay [11] and 0.06 µM (≈ 0.0214 µg/mL) in assay [12].

Source of the values: ChEMBL document CHEMBL4011590, “Structure-activity relationship studies on 3,5-dinitrophenyl tetrazoles as antitubercular agents” (Eur J Med Chem, 2017).
